Data from patent publication US9410142B2, “Dendrimer-based excipients for the attenuation of protein aggregation” (Massachusetts Institute of Technology, priority 2010, dated 2016).

Assays:
[1] = target: T1, α-chymotrypsinogen A (aCgn) (Bos taurus, UniProt P00766); assay: Preferential interaction with aCgn by vapor pressure osmometry (VPO); assay type: physicochemical, Bovine; conditions: for Γ23/[3] preferential interaction with aCgn: 50 mg/mL aCgn, 20 mM sodium citrate pH 5, maximum dendrimer 0.2 mol/L; for Γexp preferential interaction coefficient of aCgn: 0.17-[…] dendrimer salt, VPO
Method: Osmolality measurements were carried out according to the previously described procedure. For improved accuracy, all samples were prepared gravimetrically using a Mettler Toledo balance with a precision of 0.1 mg. Partial molar volume values of the
Stock solutions of both BSA and lysozyme and stock solutions of the cosolutes were each prepared in a 40 mM sodium phosphate buffer, pH 6.0 (aCgn measurements were conducted in 20 mM sodium citrate buffer, pH 3.5 or pH 5.0). Stock solutions of the cosolutes were used so that a series of samples could be easily produced with varying solute concentrations by dilution with water and buffer. The protein stock solutions were further purified by placing the solutions under dialysis for 48 hours at room temperature against two changes of buffer (1 L each). […] To determine the concentration, samples of each stock solution were diluted gravimetrically with water to a final optical density of about 1.0 and the concentration determined spectrophotometrically with a PerkinElmer Lambda 35 UV/Vis spectrometer. It should be noted that the protein stock solutions were stored at 4° C. and used within one week of their preparation.
[formula] A Wescor Vapro® vapor pressure osmometer (model 5520) was used for all osmometry measurements. The instrument was calibrated using 0.1, 0.29, and 1 mol/kg osmolality standards provided by Wescor. Due to slight drifts in the calibration points, the instrument was recalibrated after every four measurements and the thermocouple was cleaned daily using concentrated ammonium hydroxide followed by a rinse with HPLC grade water. […] The data sets for each cosolute included at least 16 individually made solutions (both for the sets with and without the protein). Each sample contained approximately 80 μL of solution (40 μL of diluted cosolute stock solution and 40 μL of the protein stock solution). A minimum of three measurements on each solution were made. If the standard deviation for a particular solution was greater than 2 mmol/kg, more measurements were taken or another sample was prepared. For a given solute, data representing the dependence of osmolality on solute molality were fitted by a quadratic equation, with all fitting parameters floated. Data were weighted by the standard deviation of the individual osmolality measurements for the same solution using the nonlinear fitting program Igor Pro.
To gain further insight into how the modified dendrimer salts inhibit protein-protein interactions, preferential interaction coefficient (Γ23) values at various concentrations were determined, both experimentally via vapor pressure osmometry (VPO) measurements and computationally via MD simulations. The experimental results for the interaction between modified generation 0 PAMAM dendrimers and aCgn are expressed in Table 2, which summarizes the polynomial fit and uncertainty of the experimental data. Theoretical preferential interaction coefficient values were computed from the MD simulation using the procedure outlined in our previous work. Baynes B M and Trout B L (2003) J Phys Chem B 107:14058-14067; Shukla D et al. (2009) J Phys Chem B 113:12546-12554.

[2] = target: Concanavalin A (Con A) (Canavalia ensiformis, UniProt P02866); assay: Con A aggregation / shelf-life at pH 6.5 and 37° C.; assay type: physicochemical; conditions: isotonic concentrations, 40 mM sodium phosphate pH 6.5, 37° C., time for 5% loss of protein vs no additive
Method: This Shelf-Life Extension Factor was determined by comparing the length of time, t95, for a 5% loss of protein when in the presence of the compounds to the original length of time, t95,0 for a 5% loss. For comparison purposes, isotonic concentrations (as determined by VPO) of the compounds were used and Shelf-Life Extension Factor values for commonly used excipients at isotonic concentrations are shown as well. Shelf-life values of aCgn were determined at 52.5° C. and at 37° C. for Con A.

[3] = target: T1, α-chymotrypsinogen A (aCgn); assay: aCgn aggregation (monomer loss) at 52.5° C. by size exclusion HPLC; assay type: physicochemical, Bovine; conditions: for relative rate constant for aCgn monomer loss: additive concentration near 0.2 M; for aCgn t95/t95, 0 (Shelf-Life Extension Factor): isotonic concentrations, 20 mM sodium citrate pH 5, 52.5° C., time for 5% loss of protein vs no additive
Method: The aggregation of aCgn was accelerated by incubating samples at an elevated temperature. […] In addition to all aggregation experiments being conducted at that temperature, all samples contained 10 mg/mL aCgn, held at pH 5.0 using a 20 mM sodium citrate buffer. 50 μL aliquots of each protein-cosolute mixture were placed in 0.2 mL polymerase chain reaction (PCR) tubes and then incubated in a Bio-Rad Mycycler thermal cycler with a timer initiated when the thermal cycler reached the desired temperature. Each series contained 12 samples and up to 8 different mixtures were tested at the same time during any given experiment. Samples were removed periodically and immediately placed in an ice bath to quench the aggregation reaction. The length of each experiment was planned so that the extent of reaction was such that at least 20% of the protein aggregated, making changes in the rate of aggregation pronounced. After at least five minutes in the ice bath, the samples were briefly spun in a minicentrifuge to remove precipitated aggregates and then transferred to autosampler vials.
All aCgn samples were first treated with phenylmethylsulfonyl fluoride to inhibit residual amounts of active enzyme and, after dialysis, solutions were frozen, rather than lyophilized, in 0.3 mL aliquots and used within 6 months. […] Solutions for the aggregation study were prepared by first preparing a solution of the cosolute of interest in a 20 mM sodium citrate pH 5 buffer at a concentration double that of interest (adjusting the pH to 5 if needed with the appropriate acid or an 8 M sodium hydroxide solution), then mixing 0.3 mL of this solution with 0.3 mL of a thawed aCgn solution. This solution was then divided into twelve aliquots, each 50 μL in volume, and incubated at an elevated temperature, as described below.
15 μL, of each aCgn sample were injected into an Agilent 1200 series HPLC, equipped with a Zorbax GF-250 (4.6×250 mm, 4 micron) size exclusion column and a UV-Vis detector, during a sequence. The HPLC mobile phase contained 25 mM citric acid monohydrate, 25 mM sodium acetate, and 200 mM sodium chloride with the pH adjusted to 4.0 using sodium hydroxide. The flow rate was set at 1 mL/min and samples were monitored at 280 nm.
Peak area at each time point was compared to the peak area for an unstressed sample to create a monomer loss profile normalized with respect to the initial concentration. Each profile was compared to a profile for a sample containing no cosolute to determine the change in aggregation rate upon addition of the cosolute. For a control, each aggregation experimental setup had one protein solution that contained no cosolute to verify that the baseline aggregation rate remained constant amongst all experiments.
The most notable consequence of perturbing a protein's environment is the enhancement or inhibition of protein aggregation. Deyoung L R et al. (1993) Accounts Chem Res 26:614-620; Fink A L (1998) Fold Des 3:R9-R23. The guanidinium-modified dendrimers were added to model protein solutions and incubated at an elevated temperature to determine how they influence the rate of this degradation pathway. […] At low dendrimer concentrations (0.05 M), the rate of monomer loss in the presence of the surface-modified dendrimer is slower than when compared to the reference solution. However, this aggregation rate reduction is insignificant when compared to the rate reduction induced by a high concentration of other commonly used additives such as arginine hydrochloride (ArgHCl), which is also depicted in the figure. Furthermore, as the concentration of the surface-modified dendrimer is increased, the aggregation rate reduction decreases until ultimately, the rate of aggregation is increased. At a concentration of 0.2 M, the surface-modified dendrimer induced rapid aggregation, causing a 50% loss in about 10 minutes as opposed to 30 minutes for the solution containing no cosolute. […]

SMILES	Γ23/[3] preferential interaction with aCgn [1]	Γexp preferential interaction coefficient of aCgn [1]	Con A t95/t95, 0 (Shelf-Life Extension Factor) ([2]; listed as Dend. 0 Gdm(H2PO4))	Con A t95/t95, 0 (Shelf-Life Extension Factor) ([2]; listed as phosphate form)	relative rate constant for aCgn monomer loss ([3]; 10 mg/mL aCgn, pH 5, 52.5° C.)	aCgn t95/t95, 0 (Shelf-Life Extension Factor) [3]	Con A t95/t95, 0 (Shelf-Life Extension Factor) [2]	aCgn aggregation suppression compared with other salt forms / generations (FIG. 5, 6, 8) ([3]; 10 mg/mL aCgn, pH 5, 52.5° C.)
N=C(N)NCCNC(=O)CCN(CCC(=O)NCCNC(=N)N)CCN(CCC(=O)NCCNC(=N)N)CCC(=O)NCCNC(=N)N.O=P(O)(O)O.O=P(O)(O)O.O=P(O)(O)O.O=P(O)(O)O.O=P(O)(O)O.O=P(O)(O)O [Gdm(H2PO4)]	−15.8 ± 5.0 mol/mol	−2.9	1.6	minimal improvement	approximately 0.02	18.9	–	–
N=C(N)NCCNC(=O)CCN(CCC(=O)NCCNC(=N)N)CCN(CCC(=O)NCCNC(=N)N)CCC(=O)NCCNC(=N)N.O=S(=O)(O)O.O=S(=O)(O)O.O=S(=O)(O)O [Gdm(SO4)1/2]	−17.0 ± 4.4 mol/mol	−3.1	–	–	approximately 0.02	26.9	5.9	nearly identical ability for inhibiting aggregation as the H2PO4 salt form
